This is an account of results in publication PMC12430169, “Notoginsenoside R1, a Metabolite from Panax notoginseng, Prevents Paclitaxel-Induced Peripheral Neuropathic Pain in Mice” (Molecules, 2025).

This assay deals with T1, human recombinant monoacylglycerol lipase (MAGL) (Homo sapiens, UniProt Q99685).
T1 construct: gene MGLL
T1 sequence (Q99685 1-303): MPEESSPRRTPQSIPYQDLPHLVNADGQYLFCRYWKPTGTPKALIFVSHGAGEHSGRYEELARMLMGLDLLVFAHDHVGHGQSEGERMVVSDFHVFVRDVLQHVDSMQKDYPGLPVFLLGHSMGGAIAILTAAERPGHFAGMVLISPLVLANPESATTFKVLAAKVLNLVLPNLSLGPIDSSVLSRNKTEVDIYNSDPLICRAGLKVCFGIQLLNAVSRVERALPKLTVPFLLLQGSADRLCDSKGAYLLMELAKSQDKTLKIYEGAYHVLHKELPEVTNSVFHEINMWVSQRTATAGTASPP
The assay can be described thus: colorimetric MAGL inhibitor screening kit (Cayman), 4-nitrophenyl acetate hydrolysis at […] nm; […] inhibition at […] at […] min, […] at […] min; inhibition falls with concentration. The format is biochemical.

For `CC(C)=CCC[C@](C)(O[C@@H]1O[C@H](CO)[C@@H](O)[C@H](O)[C@H]1O)[C@H]1CC[C@]2(C)[C@@H]1[C@H](O)C[C@@H]1[C@@]3(C)CC[C@H](O)C(C)(C)[C@@H]3[C@@H](O[C@@H]3O[C@H](CO)[C@@H](O)[C@H](O)[C@H]3O[C@@H]3OC[C@@H](O)[C@H](O)[C@H]3O)C[C@]12C` [NGR1, Notoginsenoside R1], the inhibition at 1 µM was found to be 41%.
